Data set [1] has as its target T1, OGG1 (Homo sapiens, UniProt O15527).
T1 construct: made in house
Briefly: Biochemical fluorescence (fluorophore-quencher) assay of OGG1 incision rate, 8-oxoA substrate. The settings on record: for AcLE: (1.37/#heavy atoms) × pAC50; for AC50: concentration giving 50% of the incision rate of OGG1 with APE1 (2 nM) control.

Data set [2] deals with T1, OGG1. Description: hOGG1 activity assay on radiolabeled 8-oxoG-containing oligonucleotide (urea-PAGE). It counts as biochemical. The settings on record: for stimulation of OGG1 AP lyase activity (incised substrate after 4 min): 6.25 μM TH10785, 6.25 μM 30, 10 μM 38, 10 nM hOGG1; for incision mode: elimination products of AP-site cleavage.
Data set [3] addresses T1, OGG1. Briefly: NaBH4 Schiff-base trapping assay. It is filed as biochemical. To be noted: AP or 8-oxoG DNA substrates; 6.25 μM TH10785, 6.25 μM 30, 10 μM 38.
The target in the next data set is T2, MPG (Homo sapiens, UniProt P29372).
T2 construct: made in house
T2 sequence (P29372 18-298, species assumed): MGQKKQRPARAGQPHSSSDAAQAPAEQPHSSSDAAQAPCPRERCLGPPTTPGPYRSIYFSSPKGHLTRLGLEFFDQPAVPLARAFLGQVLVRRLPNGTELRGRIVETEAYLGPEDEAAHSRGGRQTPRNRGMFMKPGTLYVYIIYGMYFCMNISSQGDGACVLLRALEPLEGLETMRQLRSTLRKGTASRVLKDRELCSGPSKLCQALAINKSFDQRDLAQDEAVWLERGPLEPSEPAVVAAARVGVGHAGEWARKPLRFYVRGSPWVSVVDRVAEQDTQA
Briefly: Selectivity screen, glycosylase inhibition in kinetic mode. The settings on record: compound 30 at 99 µM. It is filed as biochemical.

In the next data set the target is T3, NTHL1 (Homo sapiens, UniProt P78549).
T3 construct: made in house
T3 sequence (P78549 23-304): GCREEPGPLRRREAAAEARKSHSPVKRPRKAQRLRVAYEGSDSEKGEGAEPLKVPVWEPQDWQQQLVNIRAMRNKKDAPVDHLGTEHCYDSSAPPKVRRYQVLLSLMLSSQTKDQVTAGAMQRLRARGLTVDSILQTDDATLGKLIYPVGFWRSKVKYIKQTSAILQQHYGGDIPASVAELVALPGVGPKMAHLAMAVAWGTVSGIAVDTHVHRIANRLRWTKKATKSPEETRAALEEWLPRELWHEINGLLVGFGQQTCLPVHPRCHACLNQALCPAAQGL
The description is as above. It is filed as biochemical. The settings on record: compound 30 at 99 µM.

Another data set addresses T4, TDG (Homo sapiens, UniProt Q13569).
T4 construct: made in house
The data set is described as above. It counts as biochemical. To be noted: compound 30 at 99 µM.

A further data set addresses UNG (Homo sapiens, UniProt P13051). Described as above. It is filed as biochemical. The settings on record: compound 30 at 99 µM.
The target in a further data set is T5, NEIL1 (Homo sapiens, UniProt Q96FI4).
T5 construct: made in house
T5 sequence (Q96FI4 whole entry, species assumed): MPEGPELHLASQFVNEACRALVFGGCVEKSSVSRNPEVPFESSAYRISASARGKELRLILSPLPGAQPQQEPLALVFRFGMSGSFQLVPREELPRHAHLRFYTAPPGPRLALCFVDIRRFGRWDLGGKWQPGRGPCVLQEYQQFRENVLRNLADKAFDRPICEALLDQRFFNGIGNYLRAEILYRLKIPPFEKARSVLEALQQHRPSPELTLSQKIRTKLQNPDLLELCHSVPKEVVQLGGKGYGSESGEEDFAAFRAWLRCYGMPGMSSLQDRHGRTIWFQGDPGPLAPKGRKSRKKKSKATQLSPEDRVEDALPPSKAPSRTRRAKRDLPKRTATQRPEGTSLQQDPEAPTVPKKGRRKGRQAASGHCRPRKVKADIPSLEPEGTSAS
Described as above. It is filed as biochemical. To be noted: compound 30 at 99 µM.

Another data set addresses MTH1 (Homo sapiens, UniProt P36639). Description: Selectivity screen. To be noted: compound 30 at 99 µM. It is filed as biochemical.
The target of another data set is T6, APE1 (Homo sapiens, UniProt P27695).
T6 construct: made in house
T6 sequence (P27695 whole entry, species assumed): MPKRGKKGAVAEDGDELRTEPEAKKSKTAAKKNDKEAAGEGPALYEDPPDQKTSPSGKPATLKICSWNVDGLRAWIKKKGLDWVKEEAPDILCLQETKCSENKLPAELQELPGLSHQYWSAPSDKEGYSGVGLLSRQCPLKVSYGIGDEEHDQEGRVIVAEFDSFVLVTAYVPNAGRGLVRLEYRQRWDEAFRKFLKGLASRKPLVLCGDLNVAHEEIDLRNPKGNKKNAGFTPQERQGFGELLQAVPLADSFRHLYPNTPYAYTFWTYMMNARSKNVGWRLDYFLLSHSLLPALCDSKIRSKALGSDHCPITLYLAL
Briefly: Selectivity screen. The settings on record: compound 30 at 99 µM. It counts as biochemical.

In data set [4] the test system is BJ-RAS and BJ-TERT cell lines. Briefly: Resazurin cell viability assay for toxicity testing. It counts as cell-based. To be noted: for toxicity in words: BJ-TERT and BJ-RAS cells, 30 at 100 μM over several days; for toxicity: incubation in BJ-RAS and BJ-TERT cell lines. For orientation: Alamar Blue is a resazurin reagent that responds to reducing activity.
For data set [5], the system named is panel of DNA glycosylases and NUDIX nucleotide binding proteins. Briefly: Selectivity: lowest IC50 in glycosylase/NUDIX panel divided by OGG1 AC50. It counts as biochemical. The settings on record: lowest IC50 against panel / OGG1 AC50.
The next data set deals with T7, NUDT22 (Homo sapiens, UniProt Q9BRQ3).
T7 construct: made in house
T7 sequence (Q9BRQ3 1-303): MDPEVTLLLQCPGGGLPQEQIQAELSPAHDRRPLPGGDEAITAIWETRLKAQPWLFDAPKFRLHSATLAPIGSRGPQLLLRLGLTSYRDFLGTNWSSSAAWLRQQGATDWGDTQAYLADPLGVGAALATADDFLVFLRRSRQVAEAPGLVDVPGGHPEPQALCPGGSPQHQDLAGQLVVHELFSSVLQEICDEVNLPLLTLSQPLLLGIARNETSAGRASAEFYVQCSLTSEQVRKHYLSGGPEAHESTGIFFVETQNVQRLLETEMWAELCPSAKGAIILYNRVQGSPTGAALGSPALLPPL
Briefly: Selectivity screen, malachite green assay. To be noted: compound 30 at 99 µM. It is filed as biochemical.

Another data set addresses T8, NUDT5 (Homo sapiens, UniProt Q9UKK9).
T8 construct: made in house
Briefly: Selectivity screen, malachite green assay. It is filed as biochemical. The settings on record: compound 30 at 99 µM.

For a further data set, the target named is T9, NUDT15 (Homo sapiens, UniProt Q9NV35).
T9 construct: made in house
T9 sequence (Q9NV35 1-164): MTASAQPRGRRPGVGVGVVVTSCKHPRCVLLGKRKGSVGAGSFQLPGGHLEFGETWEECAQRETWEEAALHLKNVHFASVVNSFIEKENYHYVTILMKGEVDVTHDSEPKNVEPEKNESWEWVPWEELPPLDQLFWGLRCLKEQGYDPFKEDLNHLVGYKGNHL
Description: Selectivity screen, malachite green assay. It is filed as biochemical. To be noted: compound 30 at 99 µM.

Data set [6] is described as follows: Kinetic solubility assay in PBS. It counts as physicochemical. To be noted: for solubility at 2 h: phosphate-buffered saline, 25 °C, kinetic from dmso stock, kinetic solubility in PBS buffer (pH 7.4), read-out: aq. solubility.
A further data set concerns the target T10, K249A mutant OGG1 (Homo sapiens, UniProt O15527, K249A).
T10 construct: made in house
Briefly: AP-lyase assay on radiolabeled AP-site-containing oligonucleotide (PAGE). It is filed as biochemical. The settings on record: Figure S8.

A short description of data set [7]: Caco-2 permeability assay. It counts as in vitro ADME. To be noted: human, Caco-2, pH 7.4; for efflux ratio at 90 min, 10 μM: P app (B to A) / P app (A to B). On the technique in general: Caco-2 cells form a polarised layer with tight junctions and transporters.
Another data set concerns Caco-2 cell line. Description: Caco-2 permeability assay. It is filed as in vitro ADME.
Data set [8] in a line: Microsomal stability assay. To be noted: for half-life at 2 μM: human, liver microsomes. It is filed as in vitro ADME, human.
The test system of data set [9] is C253Y, F319A, K249W or D268A hOGG1 (active site mutants). Briefly: Fluorophore-quencher assay with OGG1 mutants. The settings on record: 0.25 μM of 38, 10 nM enzyme. It is filed as biochemical, human.
The target in another data set is T11, S326C hOGG1 (Homo sapiens, UniProt O15527, S326C).
T11 construct: made in house
T11 sequence (O15527 whole entry S326C): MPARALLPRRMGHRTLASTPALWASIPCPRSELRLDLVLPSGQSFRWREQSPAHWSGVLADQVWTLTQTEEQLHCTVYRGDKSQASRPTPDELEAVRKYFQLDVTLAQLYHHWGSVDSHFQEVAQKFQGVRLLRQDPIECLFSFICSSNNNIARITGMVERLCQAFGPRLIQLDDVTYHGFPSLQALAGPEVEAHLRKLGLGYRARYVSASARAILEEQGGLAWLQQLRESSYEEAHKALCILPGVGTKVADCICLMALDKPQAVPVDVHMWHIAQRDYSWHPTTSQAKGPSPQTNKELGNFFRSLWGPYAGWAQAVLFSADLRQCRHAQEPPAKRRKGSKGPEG
Description: Fluorophore-quencher assay with OGG1 mutants. To be noted: 0.25 μM of 38, 50 nM S326C hOGG1. It is filed as biochemical.

Another data set concerns the target T12, Lys249Trp mutant of OGG1 (Homo sapiens, UniProt O15527, K249W).
T12 construct: made in house
Briefly: Fluorophore-quencher assay with OGG1 mutants. It is filed as biochemical. To be noted: standard fluorescence assay.

A short description of data set [10]: Microsomal stability assay. It counts as in vitro ADME. The settings on record: pH 7.4; mouse liver microsomes. (Liver microsomes are vesicles of endoplasmic reticulum, rich in cytochrome P450 enzymes.)
For data set [11] the following is noted: basic nitrogen; cited from earlier work.
Data set [12] deals with activated peripheral blood mononuclear cells (human T cells). Briefly: Activated peripheral blood mononuclear cell proliferation assay. It counts as cell-based.
The mark [13] stands for this setting: Caco-2, in the presence of P-gp inhibitor (verapamil).

Structures are written as SMILES. In brackets after ≈: the same amount, converted by molar mass. Entries after “also recorded” stand apart in the source; their conditions may differ. Read-outs that look alike come from different tables or passages of the source.

For orientation: AC50 means the concentration at which the activity in the assay is half-maximal. As usually defined, the inhibition is the relative decrease from the control value, in per cent. A low value points to little suppression. As a reminder, the solubility is how much of the substance goes into solution per volume. For orientation: Papp A→B means how fast a substance crosses the layer from the apical side. A low value points to poor permeation. The term Papp B→A denotes the apparent permeability from the basolateral to the apical side of a cell layer. By efflux ratio is commonly meant the permeability from basolateral to apical divided by that in the opposite direction, in the common usage. As usually defined, the microsomal CLint is the capacity of the preparation to metabolise the compound, expressed as a volume cleared per time. Low values mean slow turnover, high ones rapid turnover.

T1 sequence (O15527 whole entry): as the sequence (O15527 whole entry S326C) above, with C326S counted along it
T4 sequence (Q13569 whole entry, species assumed): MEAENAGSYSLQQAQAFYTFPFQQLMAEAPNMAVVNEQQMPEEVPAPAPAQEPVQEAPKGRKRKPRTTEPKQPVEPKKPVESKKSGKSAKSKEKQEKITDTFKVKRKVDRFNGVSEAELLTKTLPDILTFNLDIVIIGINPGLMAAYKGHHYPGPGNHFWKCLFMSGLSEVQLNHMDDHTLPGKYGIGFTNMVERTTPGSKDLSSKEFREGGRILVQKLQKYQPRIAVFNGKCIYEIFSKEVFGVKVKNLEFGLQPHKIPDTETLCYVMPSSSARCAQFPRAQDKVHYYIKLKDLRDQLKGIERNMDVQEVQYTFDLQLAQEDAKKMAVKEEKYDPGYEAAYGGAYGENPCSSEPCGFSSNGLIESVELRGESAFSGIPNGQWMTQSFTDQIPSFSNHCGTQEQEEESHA
T12 sequence (O15527 whole entry K249W): as the sequence (O15527 whole entry S326C) above, with K249W, C326S counted along it
T10 sequence (O15527 whole entry K249A): as the sequence (O15527 whole entry S326C) above, with K249A, C326S counted along it
UNG, sequence (P13051 94-313 limits assumed): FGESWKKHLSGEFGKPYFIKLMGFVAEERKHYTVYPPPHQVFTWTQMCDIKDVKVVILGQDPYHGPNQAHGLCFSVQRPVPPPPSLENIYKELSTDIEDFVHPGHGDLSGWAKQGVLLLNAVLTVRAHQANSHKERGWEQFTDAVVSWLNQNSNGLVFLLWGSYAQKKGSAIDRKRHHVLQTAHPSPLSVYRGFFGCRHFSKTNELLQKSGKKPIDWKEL

With `NCCc1c(-c2cccnc2)[nH]c2ccc(O)cc12` [Compound 30, 3-(2-Aminoethyl)-2-(pyridin-3-yl)-1H-indol-5-ol], on OGG1 [1], the AcLE came out at 0.456. The half-maximal activity concentration (AC50) on OGG1 [1] (AC50 (CI95%)) stood at 580 nM. Moreover, the “improvement of potency over 1” value at OGG1 [1] (AC50 ratio) came to 10 fold. Moreover, at OGG1 [2], the “stimulation of OGG1 AP lyase activity (incised substrate after 4 min)” value (from here on “stimulation of OGG1 AP lyase activity”) is “not significant”. Also, the incision mode entry at OGG1 [2] was “primarily induced β-elimination and β”. In addition, the “effect on level of cross-linked product (Schiff-base formation)” value (from here on “effect on level of cross-linked product”) at OGG1 [3] is given as “no discernible effect”. The inhibition at 99 µM against MPG was determined as 17%; against NTHL1 it was 25%; against TDG, 55%; at UNG it was 31%; at NEIL1 it was 13%; against MTH1, 34%. Moreover, the inhibition entry against APE1, against NUDT22, on NUDT5 and on NUDT15 was “No effect” each time. In addition, in data set [4], the toxicity in words entry is “no detectable toxicity”. The compound further returned a toxicity in [4] above 100 µM. Moreover, in [5], the selectivity is listed as >150-fold. In data set [6], the “higher aqueous solubility compared to TH10785” value came to 58 fold. Further, the solubility at 2 h in data set [6] (pH 7.4, aqueous buffer) was above 300 µM. The “restoration of AP-lyase activity of Lys249Ala mutant” value at K249A mutant OGG1 is “failed to restore AP-lyase activity”. This compound also returned an apical-to-basolateral permeability (Papp A→B) at 90 min, 10 µM in data set [7] of 0.53 ×10⁻⁶ cm/s. Also, the apparent permeability from basolateral to apical (Papp B→A) at 90 min, 10 µM in data set [7] amounted to 2.15 ×10⁻⁶ cm/s. In addition, in data set [7], the efflux ratio at 90 min, 10 μM came out at 4.1. Also, the “P app (AB)” value in the data set with Caco-2 cell line (setting [13]) came out at 1.07 ×10⁻⁶ cm/s. Moreover, the “P app (BA)” value in the data set with Caco-2 cell line (setting [13]) was 1.87 ×10⁻⁶ cm/s. For the same compound, in the data set with Caco-2 cell line (decrease of efflux with verapamil), the P-gp substrate assessment entry is listed as “P-gp substrate”. The half-life at 2 μM in [8] (pH 7.4, human liver microsomes, read-out: t 1/2) was 3.55 h; in data set [8] (pH 7.4, human microsomes, read-out: microsomal half-life / metabolic stability), above 3.5 h. The compound further showed a k el at 2 μM in [8] (pH 7.4, human liver microsomes) of 5e-05 s⁻¹. The same compound returned an intrinsic clearance (microsomal CLint) at 2 μM in data set [8] (pH 7.4, human liver microsomes) of 8 µL/min/mg.

Take `NCCc1c(-c2cccnc2)[nH]c2cc(F)c(O)cc12` [Compound 38, 3-(2-Aminoethyl)-6-fluoro-2-(pyridin-3-yl)-1H-indol-5-ol]: at OGG1 [1] (read-out: AC50 (CI95%)), the AC50 turned out to be 40 nM. Besides, on OGG1 [2], the “stimulation of OGG1 AP lyase activity” value is recorded as “Stimulation of OGG1 AP lyase activity was observed” and the incision mode result was “primarily induced β-elimination”. For the same compound, the “effect on level of cross-linked product” value at OGG1 [3] is “no discernible effect”. In addition, the “restoration of activity in active site mutants” value in data set [9] is listed as “did not restore activity”. Further, the “effect on AP-lyase activity of Ser326Cys mutant” value at S326C hOGG1 was “accelerated the AP-lyase activity”. Further, the “restoration of activity of Lys249Trp mutant” value on Lys249Trp mutant of OGG1 is listed as “failed to restore activity”.

The compound `c1ccc2c(NC3CCCCC3)nc(C3CC3)nc2c1` [TH10785, reference compound] yielded an intrinsic metabolic clearance (microsomal CLint) at 2 μM in data set [10] of 347 µL/min/mg. The AcLE on OGG1 [1] amounted to 0.419. Besides, the AC50 at OGG1 [1] (read-out: AC50 (CI95%)) amounted to 870 nM. The compound also showed an AcLLE at OGG1 [1] (pAC50 – clogP) of 1.57. For the same compound, at OGG1 [2], the “stimulation of OGG1 AP lyase activity” value is recorded as “Stimulation of OGG1 AP lyase activity was observed”; the incision mode result is “both β and β,δ-elimination products and β,δ”. At OGG1 [3], the “effect on level of cross-linked product” value is “no discernible effect”. The pK a entry in data set [11] is reported as “≈ 6.55”. Also, in [4], the toxicity in words entry is given as “some toxicity” and the toxicity is above 18 µM. Also, the selectivity in [5] is >120-fold. In addition, the effect on proliferation entry in data set [12] (CD3/CD28/IL-2 activated cells, 96 h) is “suppresses proliferation in a dose-dependent manner at 10 and 20 μM; also recorded: inhibits proliferation”. Besides, in data set [12] (value obtained using PBMCs), the toxicity turned out to be 20 µM. Besides, the solubility at 2 h in data set [6] (aqueous buffer) was found to be 6 µM (≈ 1.6 µg/mL). Also, in [7], the Papp A→B at 90 min, 10 µM turned out to be 1.5 ×10⁻⁶ cm/s; the Papp B→A at 90 min, 10 µM was found to be 4.9 ×10⁻⁶ cm/s; the efflux ratio at 90 min, 10 μM was 3.3. The intrinsic clearance (microsomal CLint) at 2 μM in data set [8] (pH 7.4, human liver microsomes) was 18 µL/min/mg.

The values are drawn from article PMC12621200, “Giving an Enzyme Scissors: Serotonin Derivatives as Potent Organocatalytic Switches for DNA Repair Enzyme OGG1” (Journal of Medicinal Chemistry, 2025).
